Results: patent US20240226225A1 (Protagonist Therapeutics, Inc., priority 2021, published 2024)
Starred links: 1 amine or outer side, 2 acyl side, 3 side chain; linkers in the order of their positions; H or OH if unused. Positions of bridges follow the written chain, without caps; N, C: chain ends. Non-standard residues stand in square brackets, D forms with d. Residues, ends and D or L forms follow the SMILES beside them. Groups on a side chain read outwards from the residue. *: point of attachment. PEG12 = NCCOCCOCCOCCOCCOCCOCCOCCOCCOCCOCCOCCOCCC(=O)O; Ala(1H-tetrazol-5-yl) = N[C@@H](Cc1nnn[nH]1)C(=O)O; C18 diacid = O=C(O)CCCCCCCCCCCCCCCCC(=O)*; Dip = N[C@H](C(=O)O)C(c1ccccc1)c1ccccc1; γGlu = O=C(O)[C@H](CCC(=O)[*:2])N[*:1]; Palmitoyl = CCCCCCCCCCCCCCCC(=O)*; β3hF = N[C@H](CC(=O)O)Cc1ccccc1; Isovaleryl = CC(C)CC(=O)*; AEEA = NCCOCCOCC(=O)O

Assays:
ferroportin [1] = target: T1, ferroportin (Homo sapiens, UniProt Q9NP59); experiment: FPN activity assay: internalization/degradation of ferroportin-GFP in stably transfected HEK293 cells, decrease in GFP fluorescence; type: cell-based; design: expressed in transfected cells; settings: HEK293 cells stably expressing ferroportin-GFP, at least 18 hours incubation; read-out: FPN EC50
T1 sequence (Q9NP59 1-571): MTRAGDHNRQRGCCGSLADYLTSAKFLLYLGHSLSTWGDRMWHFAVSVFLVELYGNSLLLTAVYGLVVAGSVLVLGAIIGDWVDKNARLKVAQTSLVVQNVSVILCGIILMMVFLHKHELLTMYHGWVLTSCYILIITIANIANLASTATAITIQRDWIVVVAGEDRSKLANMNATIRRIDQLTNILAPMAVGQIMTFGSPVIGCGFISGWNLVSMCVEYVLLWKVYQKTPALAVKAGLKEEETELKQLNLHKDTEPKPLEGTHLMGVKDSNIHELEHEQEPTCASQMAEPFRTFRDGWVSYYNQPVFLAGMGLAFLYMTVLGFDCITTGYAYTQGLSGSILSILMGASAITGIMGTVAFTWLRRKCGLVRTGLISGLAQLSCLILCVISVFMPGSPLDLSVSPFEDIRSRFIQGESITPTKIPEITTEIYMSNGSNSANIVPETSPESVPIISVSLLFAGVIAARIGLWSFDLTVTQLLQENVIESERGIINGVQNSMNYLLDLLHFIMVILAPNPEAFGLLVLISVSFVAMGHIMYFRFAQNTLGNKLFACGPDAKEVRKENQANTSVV

ferroportin [2] = target: T1, ferroportin; experiment: T47D cell-based ferroportin internalization assay in presence of 0.5% mouse serum albumin (MSA), AF647-conjugated detection peptide, flow cytometry; design: a human breast carcinoma adherent cell line which endogenously expresses ferroportin; host or cells: T47D; settings: T47D cells, 1 hr incubation
Protocol: The potency of the peptides in causing ferroportin internalization was evaluated in a T47D cell-based assay. […] In this internalization assay, the potency of the test peptides was evaluated in presence of serum albumin which is the main protein component in the blood. T47D cells were maintained in RPMI media (containing required amount of fetal bovine serum) and regularly sub-cultured. In preparation for the assay, the cells were seeded in 96-well plates at a density of 80-100 k cells per well in 100 ul volume and allowed to rest overnight. On the next day, test peptides were first prepared in dilution series (10-point series, starting concentration of ˜5 μM, typically 3-4×fold dilution steps), all with 0.5% mouse serum albumin (MSA purified from mouse serum; Sigma, A3139). The test peptide dilution series were allowed to incubate at room temperature for 30 min. Then the media was aspirated from the 96-well cell plate and test peptide dilution series were added. After 1 hr incubation, the media with test peptides was aspirated out and AF647-conjugated detection peptide was added at fixed concentration of 200 nM. The AF647-conjugated detection peptide was previously verified to bind to ferroportin and cause its internalization. The cells were washed again after a 2 hr incubation in preparation for flow cytometry analysis. The Median Fluorescence Intensity (MFI) of the AF647-positive population was measured (after removing dead cells and non-singlets from the analysis). The MFI values were used to generate a dose-response curve and obtain IC50 potencies for the test peptides. The IC50 potencies were calculated by using 4-parameter non-linear fitting function in Graphpad Prism (Table 2A).

DC50 (ferroportin [1]) | IC50 (ferroportin [2]) | SMILES
10 to 100 nM | 1 to 10 nM | CCCCCCCCCCCCCCCC(=O)NCCOCCOCCOCCOCCOCCOCCOCCOCCOCCOCCOCCOCCC(=O)NCCCC[C@@H]1NC(=O)[C@H]([C@@H](C)CC)NC(=O)[C@@H](NC(=O)[C@@H]2CCCN2C(=O)[C@@H](NC(=O)[C@H](Cc2c[nH]cn2)NC(=O)[C@@H](NC(=O)[C@H](Cc2nn[nH]n2)NC(=O)CC(C)C)[C@@H](C)O)C(c2ccccc2)c2ccccc2)CSSC[C@@H](C(N)=O)NC(=O)[C@@H](CCCCN)NC(=O)C[C@H](Cc2ccccc2)NC1=O [Compd 1, Isovaleric Acid-[Tet1]-T-H-[Dpa]-P-[Cys]-I-[Lys(PEG12_Palm)]-[bhPhe]-[(D)Lys]-[Cys]-NH2] (Isovaleryl-[Ala(1H-tetrazol-5-yl)]TH[Dip]PCIK([PEG12-Palmitoyl])[β3hF][dK]C-NH2; disulfide 6-11)
10 to 100 nM | 100 to 500 nM | CC[C@H](C)[C@@H]1NC(=O)[C@@H](NC(=O)[C@@H]2CCCN2C(=O)[C@@H](NC(=O)[C@H](Cc2cncn2C)NC(=O)[C@@H](NC(=O)[C@H](CC2N=NN=N2)NC(=O)CC(C)C)[C@@H](C)O)C(c2ccccc2)c2ccccc2)CSSC[C@@H](C(N)=O)NC(=O)[C@@H](CCCCN)NC(=O)C[C@H](Cc2ccccc2)NC(=O)[C@H](CCCCNC(=O)COCCOCCNC(=O)COCCOCCNC(=O)CC[C@H](NC(=O)CCCCCCCCCCCCCCCCC(=O)O)C(=O)O)NC1=O [Compd 8, Isovaleric Acid-[Tet1]-T-[His_3Me]-[Dpa]-P-[Cys]-I-[Lys(1PEG2_1PEG2_IsoGlu_C18_Diacid)]-[bhPhe]-[(D)Lys]-[Cys]-NH2]
10 to 100 nM | 100 to 500 nM | CC[C@H](C)[C@@H]1NC(=O)[C@@H](NC(=O)[C@@H]2CCCN2C(=O)[C@@H](NC(=O)[C@H](Cc2c[nH]cn2)NC(=O)[C@@H](NC(=O)[C@H](Cc2nn[nH]n2)NC(=O)CC(C)C)[C@@H](C)O)C(c2ccccc2)c2ccccc2)CSSC[C@H](C(N)=O)NC(=O)C[C@H](Cc2ccccc2)NC(=O)[C@H](CCCCNC(=O)COCCOCCNC(=O)COCCOCCNC(=O)CC[C@H](NC(=O)CCCCCCCCCCCCCCCCC(=O)O)C(=O)O)NC1=O [Compd 36, Isovaleric Acid-[Tet1]-T-H-[Dpa]-P-[Cys]-I-[Lys(1PEG2_1PEG2_IsoGlu_C18_Diacid)]-[bhPhe]-d[Cys]-NH2] (Isovaleryl-[Ala(1H-tetrazol-5-yl)]TH[Dip]PCIK([AEEA-AEEA-γGlu-C18 diacid])[β3hF][dC]-NH2; disulfide 6-10)
> 500 nM | – | CC[C@H](C)[C@@H]1NC(=O)[C@@H](NC(=O)[C@@H]2CCCN2C(=O)[C@@H](NC(=O)[C@H](Cc2c[nH]cn2)NC(=O)[C@@H](NC(=O)[C@H](Cc2nn[nH]n2)NC(=O)CC(C)C)[C@@H](C)O)C(c2ccccc2)c2ccccc2)CSSC[C@@H](C(=O)O)NC(=O)C[C@H](Cc2ccccc2)NC(=O)[C@H](CCCCNC(=O)COCCOCCNC(=O)COCCOCCNC(=O)CC[C@H](NC(=O)CCCCCCCCCCCCCCCCC(=O)O)C(=O)O)NC1=O [Compd 37, Isovaleric Acid-[Tet1]-T-H-[Dpa]-P-[Cys]-I-[Lys(1PEG2_1PEG2_IsoGlu_C18_Diacid)]-[bhPhe]-[Cys]] (Isovaleryl-[Ala(1H-tetrazol-5-yl)]TH[Dip]PCIK([AEEA-AEEA-γGlu-C18 diacid])[β3hF]C-OH; disulfide 6-10; C-terminus assumed)
> 500 nM | – | CC[C@H](C)[C@@H]1NC(=O)[C@@H](NC(=O)[C@@H]2CCCN2C(=O)[C@@H](NC(=O)[C@H](Cc2c[nH]cn2)NC(=O)[C@@H](NC(=O)[C@H](Cc2nn[nH]n2)NC(=O)CCCN)[C@@H](C)O)C(c2ccccc2)c2ccccc2)CSSC[C@@H](C(N)=O)NC(=O)[C@@H](CCCCN)NC(=O)C[C@H](Cc2ccccc2)NC(=O)[C@H](CCCCNC(=O)COCCOCCNC(=O)COCCOCCNC(=O)CC[C@H](NC(=O)CCCCCCCCCCCCCCCCC(=O)O)C(=O)O)NC1=O [Compd 38, Gaba-[Tet1]-T-H-[Dpa]-P-[Cys]-I-[Lys(1PEG2_1PEG2_IsoGlu_C18_Diacid)]-[bhPhe]-[(D)Lys]-[Cys]-NH2]
> 500 nM | – | CC[C@H](C)[C@@H]1NC(=O)[C@@H](NC(=O)[C@@H]2CCCN2C(=O)[C@@H](NC(=O)[C@H](Cc2c[nH]cn2)NC(=O)[C@@H](NC(=O)[C@H](Cc2nn[nH]n2)NC(=O)CCCCN)[C@@H](C)O)C(c2ccccc2)c2ccccc2)CSSC[C@@H](C(N)=O)NC(=O)[C@@H](CCCCN)NC(=O)C[C@H](Cc2ccccc2)NC(=O)[C@H](CCCCNC(=O)COCCOCCNC(=O)COCCOCCNC(=O)CC[C@H](NC(=O)CCCCCCCCCCCCCCCCC(=O)O)C(=O)O)NC1=O [Compd 39, 5 AminoPentanoicAcid-[Tet1]-T-H-[Dpa]-P-[Cys]-I-[Lys(1PEG2_1PEG2_IsoGlu_C18_Diacid)]-[bhPhe]-[(D)Lys]-[Cys]-NH2]
10 to 100 nM | 10 to 100 nM | CC[C@H](C)[C@@H]1NC(=O)[C@@H](NC(=O)[C@@H]2CCCN2C(=O)[C@@H](NC(=O)[C@H](Cc2c[nH]cn2)NC(=O)[C@@H](NC(=O)[C@H](Cc2nn[nH]n2)NC(=O)CC(C)C)[C@@H](C)O)C(c2ccccc2)c2ccccc2)CSSC[C@@H](C(N)=O)NC(=O)[C@@H](CCCCN)NC(=O)C[C@H](Cc2ccccc2)NC(=O)[C@H](CCCCNC(=O)COCCOCCNC(=O)COCCOCCNC(=O)CC[C@H](NC(=O)CCCCCCCCCCCCCCCCC(=O)O)C(=O)O)NC1=O [Compd 40, Isovaleric Acid-[Tet1]-T-H-[Dpa]-P-[Cys]-I-[Lys(1PEG2_1PEG2_IsoGlu_C18_Diacid)]-[bhPhe]-[(D)Lys]-[Cys]-NH2] (Isovaleryl-[Ala(1H-tetrazol-5-yl)]TH[Dip]PCIK([AEEA-AEEA-γGlu-C18 diacid])[β3hF][dK]C-NH2; disulfide 6-11)
10 to 100 nM | – | CC[C@H](C)[C@@H]1NC(=O)[C@@H](NC(=O)[C@@H]2CCCN2C(=O)[C@@H](NC(=O)[C@H](Cc2cnc[nH]2)NC(=O)[C@@H](NC(=O)[C@H](CC2N=NN=N2)NC(=O)c2ccccc2)[C@@H](C)O)C(c2ccccc2)c2ccccc2)CSSC[C@@H](C(N)=O)NC(=O)[C@@H](CCCCN)NC(=O)C[C@H](Cc2ccccc2)NC(=O)[C@H](CCCCNC(=O)COCCOCCNC(=O)COCCOCCNC(=O)CC[C@H](NC(=O)CCCCCCCCCCCCCCCCC(=O)O)C(=O)O)NC1=O [Compd 42, Benzyl-[Tet1]-T-H-[Dpa]-P-[Cys]-I-[Lys(1PEG2_1PEG2_IsoGlu_C18_Diacid)]-[bhPhe]-[(D)Lys]-[Cys]-NH2]
10 to 100 nM | 100 to 500 nM | CC[C@H](C)[C@@H]1NC(=O)[C@@H](NC(=O)[C@@H]2CCCN2C(=O)[C@@H](NC(=O)[C@H](Cc2c[nH]cn2)NC(=O)[C@@H](NC(=O)[C@H](Cc2nn[nH]n2)NC(=O)CC(C)C(F)(F)F)[C@@H](C)O)C(c2ccccc2)c2ccccc2)CSSC[C@@H](C(N)=O)NC(=O)[C@@H](CCCCN)NC(=O)C[C@H](Cc2ccccc2)NC(=O)[C@H](CCCCNC(=O)COCCOCCNC(=O)COCCOCCNC(=O)CC[C@H](NC(=O)CCCCCCCCCCCCCCCCC(=O)O)C(=O)O)NC1=O (stereo partly drawn) [Compd 45, Butyric_Acid_3CF3-[Tet1]-T-H-[Dpa]-P-[Cys]-I-[Lys(1PEG2_1PEG2_IsoGlu_C18_Diacid)]-[bhPhe]-[(D)Lys]-[Cys]-NH2]
10 to 100 nM | – | CCCCCCCCCCCCCCCC(=O)NCCOCCOCCOCCOCCOCCOCCOCCOCCOCCOCCOCCOCCC(=O)NCCCC[C@@H]1NC(=O)[C@H](Cc2ccccc2)NC(=O)[C@H](CCCCN)NC(=O)[C@H]([C@@H](C)CC)NC(=O)[C@@H](NC(=O)[C@@H]2CCCN2C(=O)[C@H](Cc2ccccc2)NC(=O)[C@H](Cc2c[nH]cn2)NC(=O)[C@@H](NC(=O)[C@H](CC(=O)O)NC(=O)CC(C)C)[C@@H](C)O)CSSC[C@@H](C(=O)N[C@@H](CCCCN)C(N)=O)NC(=O)CNC(=O)[C@H](CCCCN)NC(=O)[C@H](CO)NC(=O)[C@H](CCCNC(=N)N)NC(=O)[C@@H]2CCCN2C1=O [compound 1, reference compound]
